Source: patent US20250074888A1, “PYRIDAZINE DERIVATIVES AS MODULATORS OF NLRP3 INFLAMMASOME AND RELATED METHODS” (Neumora Therapeutics, Inc., priority 2021, published 2025)

Assays:
NLRP3 inflammasome = NLRP3 inflammasome (Homo sapiens, UniProt Q96P20); assay: NLRP3 inflammasome activation in THP1 macrophages (LPS priming, nigericin), IL-1β AlphaLISA; type: cell-based; settings: PMA-differentiated THP1, LPS 20 ng/ml 3 hrs, compound 1 hr, Nigericin 6.7 uM 3 hrs, supernatant
IL-6 = IL-6 release from LPS-primed, nigericin-treated THP1 macrophages, Hu IL-6 AlphaLISA; type: cell-based; settings: Homo sapiens, THP-1; PMA-differentiated THP1, LPS 20 ng/ml 3 hrs, compound 1 hr, Nigericin 6.7 uM 3 hrs, supernatant

Chain of NLRP3 inflammasome (Q96P20 whole entry): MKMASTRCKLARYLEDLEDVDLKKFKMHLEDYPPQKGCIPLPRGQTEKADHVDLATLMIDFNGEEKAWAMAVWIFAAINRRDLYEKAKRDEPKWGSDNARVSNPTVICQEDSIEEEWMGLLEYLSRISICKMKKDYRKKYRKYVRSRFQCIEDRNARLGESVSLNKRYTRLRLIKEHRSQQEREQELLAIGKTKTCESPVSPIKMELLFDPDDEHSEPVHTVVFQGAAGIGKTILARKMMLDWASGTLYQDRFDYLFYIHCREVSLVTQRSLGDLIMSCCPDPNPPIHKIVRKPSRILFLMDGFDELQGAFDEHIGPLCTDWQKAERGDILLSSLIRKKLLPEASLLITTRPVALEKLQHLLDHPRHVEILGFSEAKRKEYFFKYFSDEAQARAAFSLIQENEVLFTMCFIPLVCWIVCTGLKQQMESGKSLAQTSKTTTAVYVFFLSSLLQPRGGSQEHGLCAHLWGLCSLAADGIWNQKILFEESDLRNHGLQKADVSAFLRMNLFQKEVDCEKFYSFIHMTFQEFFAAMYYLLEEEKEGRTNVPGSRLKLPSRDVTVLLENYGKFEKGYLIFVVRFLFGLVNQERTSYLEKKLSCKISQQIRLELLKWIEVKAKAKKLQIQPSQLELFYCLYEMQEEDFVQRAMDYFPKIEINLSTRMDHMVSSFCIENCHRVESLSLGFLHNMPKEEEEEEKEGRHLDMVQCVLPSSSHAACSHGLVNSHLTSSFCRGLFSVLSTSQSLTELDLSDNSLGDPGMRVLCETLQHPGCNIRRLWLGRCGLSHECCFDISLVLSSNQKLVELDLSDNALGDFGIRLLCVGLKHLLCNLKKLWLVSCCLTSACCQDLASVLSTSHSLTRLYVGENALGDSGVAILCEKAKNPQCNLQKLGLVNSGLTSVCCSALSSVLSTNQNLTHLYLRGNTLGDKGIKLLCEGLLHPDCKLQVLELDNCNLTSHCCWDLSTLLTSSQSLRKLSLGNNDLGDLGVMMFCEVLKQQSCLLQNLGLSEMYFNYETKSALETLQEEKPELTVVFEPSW

Compound | IC50 (NLRP3 inflammasome) | IC50 (IL-6)
Cc1cc(-c2ccc(C(F)(F)F)cc2C#N)nnc1N[C@@H]1CCCN(C)C1 [compound 72] | 0.1 to 0.5 µM | > 10 µM
Cc1cc(Cl)ccc1-c1nnc(O[C@@H]2CCCN(C)C2)cc1C [compound 181] | 0.5 to 1 µM | ≤ 1 µM
Cc1cc(F)ccc1-c1cc(F)c(N[C@@H]2CCCN(C)C2)nn1 [compound 154] | 0.1 to 0.5 µM | > 10 µM
CN1CCC[C@@H](Nc2ccc(-c3ccc(Cl)cc3)nn2)C1 [compound 129] | 0.05 to 0.1 µM | > 10 µM
Cc1cc(N(C)[C@@H]2CCN(C)C2)nnc1-c1ccc(F)cc1 [compound 184] | > 1 µM | 5 to 10 µM
Cc1cc(N[C@@H]2CCN(C)C2)nnc1-c1ccc(C(F)(F)F)cc1 [compound 186] | ≤ 0.01 µM | > 10 µM
CCN1CCC[C@@H](Nc2cc(C)c(-c3ccc(Cl)cc3)nn2)C1 [compound 155] | ≤ 0.01 µM | > 10 µM
Cc1cc(N[C@@H]2CCCN(C)C2)nnc1-c1ccccc1C(F)F [compound 159] | 0.5 to 1 µM | 5 to 10 µM
CCN1C[C@H](F)C[C@@H](Nc2cc(C)c(-c3ccc(F)cc3)nn2)C1 [compound 150] | > 1 µM | > 10 µM
Cc1cc(-c2cc(C)c(N[C@@H]3CCCN(C)C3)nn2)ccc1Cl [compound 163] | > 1 µM | > 10 µM
Cc1cc(N[C@@H]2CCCN(C)C2)nnc1-c1ccccc1 [compound 54] | > 1 µM | > 10 µM
Cc1cc(N[C@@H]2CCCN(CC(F)(F)F)C2)nnc1-c1ccc(C(F)(F)F)cc1 [compound 114] | > 1 µM | > 10 µM
Cc1cc(N[C@@H]2CCCN(C)C2)nnc1-c1ccc(Cl)cc1F [compound 153] | > 1 µM | 5 to 10 µM
COc1cccc(-c2cc(C)c(N[C@@H]3CCCN(C)C3)nn2)c1 [compound 53] | > 1 µM | > 10 µM
Cc1cc(N[C@@H]2C[C@H](F)CN(C)C2)nnc1-c1ccc(C(F)(F)F)cc1 [compound 137] | 0.1 to 0.5 µM | > 10 µM
Cc1cc(N[C@H]2CN(C)CC(F)(F)C2)nnc1-c1ccc(F)cc1 [compound 119] | > 1 µM | > 10 µM
Cc1cc(-c2nnc(N[C@@H]3CCCN(C)C3)cc2C)ccc1F [compound 62] | 0.01 to 0.05 µM | > 10 µM
Cc1cc(N[C@@H]2CCCN(CC3CC3)C2)nnc1-c1ccc(C(F)(F)F)cc1 [compound 66] | ≤ 0.01 µM | > 10 µM
CCN(c1cc(C)c(-c2ccc(C(F)(F)F)cc2)nn1)[C@@H]1CCCN(C)C1 [compound 167] | 0.1 to 0.5 µM | > 10 µM
Cc1cc(N[C@@H]2CCCN(C)C2)nnc1-c1ccc(F)c(F)c1 [compound 64] | 0.1 to 0.5 µM | > 10 µM
Cc1cc(N[C@H]2CN(C)CC[C@@H]2F)nnc1-c1ccc(F)cc1 [compound 138] | > 1 µM | > 10 µM
Cc1cc(-c2nnc(N[C@@H]3CCCN(C)C3)cc2C)ccc1C(F)(F)F [compound 99] | 0.5 to 1 µM | > 10 µM
Cc1cc(N[C@@H]2CCCN(C)C2)nnc1-c1ccc(O)c(C)c1C(F)(F)F [compound 76] | > 1 µM | 5 to 10 µM
Cc1c(-c2ccc(N[C@@H]3CCCN(C)C3)nn2)ccc(C(F)(F)F)c1C [compound 161] | 0.1 to 0.5 µM | > 10 µM
CN1CCC[C@@H](Nc2ccc(-c3ccc(C(F)(F)F)cc3)nn2)C1 [compound 67] | 0.1 to 0.5 µM | > 10 µM
Cc1cc(Cl)ccc1-c1nnc(N[C@@H]2CCN(C)C2)cc1C [compound 187] | > 1 µM | > 10 µM
Cc1cc(N[C@@H]2CCCN(C3CC3)C2)nnc1-c1ccc(F)cc1 [compound 120] | 0.05 to 0.1 µM | > 10 µM
